Measured values reported in patent publication US20230293475A1, “METHODS OF PROVIDING SO[…] TO SUBJECTS WITH IMPAIRED RENAL FUNCTION” (Axsome Malta Ltd., priority 2020, published 2023).
Where two headings read alike, the source gives them in different places.

Assay: Phase 1 single-dose study, plasma PK of solriamfetol by level of renal function
Format: in vivo, human
Conditions: for AUCt, percent ratio (90% confidence interval) of geometric mean relative to Group 1 / AUC∞, percent ratio (90% confidence interval) of geometric mean relative to Group 1 / Cmax, percent ratio (90% confidence interval) of geometric mean relative to Group 1 / AUC(0-t) / AUC(0-inf) / Cmax / Vd/F / Tmax / half-life: single 75-mg dose; for AUC(0-t) / AUC(0-inf) / Cmax / Vd/F / Tmax / half-life: both sexes, human, plasma, oral, 75 mg; for Vd/F: read-out: Vd/F, mean ± SD (%CV); for Tmax: read-out: tmax, median (min, max); for half-life: read-out: t½, mean ± SD (%CV) (converted)
Procedure: In healthy subjects with normal renal function, solriamfetol HCl is renally excreted ~90% unchanged within 48 hours of administration. Thus, renal impairment, as well as hemodialysis in individuals with end-stage renal disease (ESRD), could affect the PK of solriamfetol HCl. To ascertain the precise impact of renal impairment and hemodialysis on pharmacokinetics and safety of solriamfetol RCl, a Phase 1, parallel-group, open-label, single-dose study was conducted at 2 U.S. sites. The protocol was approved by the IntegReview Institutional Review Board (Austin, Texas), and the study was conducted in compliance with the protocol, the Guideline for Good Clinical Practice E6; the US Code of Federal Regulations pertaining to conduct and reporting of clinical studies; the Clinical Trials Directive of the European Medicines Agency (Directive 2001/20/EC); and the Declaration of Helsinki. Written informed consent was obtained from each subject before enrollment in the study and before performance of any study-related procedure. See, also, Zomorodi K, Chen D, Lee L, Lasseter K, Marbury T. An Open-Label, Single-Dose, Phase 1 Study of the Pharmacokinetics and Safety of JZP-110 in Subjects With Normal or Impaired Renal Function and With End-Stage Renal Disease Requiring Hemodialysis [abstract]. Sleep. 2017;40 (suppl):A382-383.
Eligible participants were men and non-pregnant, non-lactating women between the ages of 18 and 80 years, with a body mass index (BMI) ≤ 35 kg/m^2. Women of childbearing potential were required to have used a medically accepted method of birth control for at least 2 months prior to the first dose of study drug, with continued use throughout the study period and for 30 days after study completion.
Eligible participants were assigned to 1 of 5 groups according to renal disease status as measured by the estimated glomerular filtration rate (eGFR) on the day prior to dosing, calculated using the Modification in Diet in Renal Disease equation. Group 1 consisted of healthy participants with normal renal function (eGFR ≥ 90 mL/min/1.73 m^2) and served as the control group. Groups 2, 3, and 4 had mild, moderate, and severe renal impairment based on eGFRs of 60-89, 30-59, and < 30 mL/min/1.73 m^2, respectively. Group 5 consisted of participants with ESRD who required ≥ 3 hemodialysis treatments per week for the preceding 3 months. […] Group 1 was enrolled last to facilitate matching the mean age, BMI, and sex distribution of Groups 2-5.
Groups 1-4 received one dose of solriamfetol HCl (89.3 mg; equivalent to 75-mg solriamfetol) on day 1; Group 5 received one dose equivalent to 75-mg dose on day 1 followed by 4-hour hemodialysis (designated Group 5.2), and one dose equivalent to 75-mg solriamfetol on day 8 without hemodialysis (designated Group 5.1). All doses were administered on an empty stomach following an overnight fast except for participants in Group 5, who received a standardized snack on day 7 and breakfast early on day 8 before starting an 8-hour fast. Participants remained fasting for 4 hours after administration, with water allowed except for 1 hour before and after dosing.
Serial blood samples of approximately 4 mL were collected within 30 minutes prior to dosing and at 0.5, 1, 1.5, 2, 2.5, 3, 4, 6, 8, 10, 12, 24, 36, and 48 hours post-dose in Groups 1-3, with continued sampling at 60 and 72 hours post-dose in Groups 4 and 5. All blood samples were collected into labeled K2EDTA tubes by direct venipuncture or indwelling catheter and kept on ice until the samples were centrifuged within 30 minutes of collection at approximately 2500 rpm (1315 × g) at 4° C. for 10 minutes. The plasma was transferred into polypropylene tubes for freezing and storage at -70° C. until analysis.
Bioanalytical analyses were performed by a central laboratory (KCAS, LLC, Shawnee, Kansas) using validated proprietary methods that included extraction/derivatization and liquid chromatography-tandem mass spectrometry (LC-MS/MS). […]

[1] = Group 3 moderate renal impairment
[2] = Group 4 severe renal impairment
[3] = Group 5.1 ESRD without hemodialysis
[4] = Group 5.2 ESRD with hemodialysis
[5] = Group 5.1 ESRD without hemodialysis, n=3
[6] = Group 5.2 ESRD with hemodialysis, n=6

For `NC(=O)OC[C@H](N)Cc1ccccc1` [solriamfetol, [R]-2-amino-3-phenylpropylcarbamate], the “Cmax, lower relative to normal renal function” value (ESRD requiring hemodialysis) was at most 19%, the “overall exposure, fold increase relative to normal renal function” value (ESRD requiring hemodialysis) was at least 4 fold and the “t½, fold longer relative to normal renal function” value (ESRD requiring hemodialysis) was at least 13 fold. For the same compound, the “Cmax, higher versus Group 1” value (Group 2 mild renal impairment) was “approximately 6%”, the “total exposure (AUC∞), higher relative to Group 1” value (Group 2 mild renal impairment) was 53% and the “AUCt, percent ratio (90% confidence interval) of geometric mean relative to Group 1” value (Group 2 mild renal impairment) was 158.3 (97.5, 256.9) %. The “AUC∞, percent ratio (90% confidence interval) of geometric mean relative to Group 1” value (Group 2 mild renal impairment) was 152.9 (92.9, 251.7) %, the “Cmax, percent ratio (90% confidence interval) of geometric mean relative to Group 1” value (Group 2 mild renal impairment) was 105.9 (80.6, 139.0) % and the “Cmax, higher versus Group 1” value [1] was about 4%. The “total exposure (AUC∞), higher relative to Group 1” value [1] was 129%, the “AUCt, percent ratio (90% confidence interval) of geometric mean relative to Group 1” value [1] was 219.2 (133.7, 359.6) % and the “AUC∞, percent ratio (90% confidence interval) of geometric mean relative to Group 1” value [1] was 229.2 (135.6, 387.4) %. For the same compound, the “Cmax, percent ratio (90% confidence interval) of geometric mean relative to Group 1” value [1] was 104.3 (78.4, 138.9) %, the “Cmax, higher versus Group 1” value [2] was about 11% and the “total exposure (AUC∞), higher relative to Group 1” value [2] was 339%. For the same compound, the “AUCt, percent ratio (90% confidence interval) of geometric mean relative to Group 1” value [2] was 380.4 (208.4, 694.4) %, the “AUC∞, percent ratio (90% confidence interval) of geometric mean relative to Group 1” value [2] was 438.6 (217.3, 885.3) % and the “Cmax, percent ratio (90% confidence interval) of geometric mean relative to Group 1” value [2] was 110.5 (81.1, 150.6) %. The “overall exposure (AUCt), fold higher relative to Group 1” value (Group 5.1 ESRD without dialysis on day 8) was “approximately 5 fold”, the “Cmax, lower versus Group 1” value [3] was “approximately 3%” and the “exposure, higher versus Group 1” value [3] was “approximately 518%”. The “AUCt, percent ratio (90% confidence interval) of geometric mean relative to Group 1” value [3] was 617.8 (385.3, 990.8) %, the “AUC∞, percent ratio (90% confidence interval) of geometric mean relative to Group 1” value [3] was 1290.6 (542.78, 3068.5) % and the “Cmax, percent ratio (90% confidence interval) of geometric mean relative to Group 1” value [3] was 97.2 (76.1, 124.1) %. The “overall exposure (AUCt), fold higher relative to Group 1” value (Group 5.2 ESRD with dialysis on day 1) was “about 4 fold”, the “Cmax, lower versus Group 1” value [4] was about 19% and the “exposure, higher versus Group 1” value [4] was about 357%. For the same compound, the “AUCt, percent ratio (90% confidence interval) of geometric mean relative to Group 1” value [4] was 457.2 (296.6, 704.9) %, the “AUC∞, percent ratio (90% confidence interval) of geometric mean relative to Group 1” value [4] was 1496.5 (748.7, 2991.2) % and the “Cmax, percent ratio (90% confidence interval) of geometric mean relative to Group 1” value [4] was 80.9 (63.4,103.1) %. For the same compound, the AUC(0-t) (Group 1 normal renal function, over 48 h, read-out: AUCt, mean ± SD (%CV)) was 4850 ± 3450 ng·h/mL, the AUC(0-t) (Group 1 normal renal function, over 48 hours, read-out: AUCt, geometric LS mean (converted)) was 4090 ng·h/mL and the AUC(0-inf) (Group 1 normal renal function, read-out: AUC∞, geometric LS mean) was 4360 ng·h/mL. For the same compound, the AUC(0-inf) (Group 1 normal renal function, read-out: AUC∞, mean ± SD (%CV)) was 5270 ± 4100 ng·h/mL, the Cmax (Group 1 normal renal function, read-out: Cmax, geometric LS mean) was 482 ng/mL and the Cmax (Group 1 normal renal function, read-out: Cmax, mean ± SD (%CV)) was 499 ng/mL. The Vd/F (Group 1 normal renal function) was 164 L, the Tmax (Group 1 normal renal function) was 1.3 h and the half-life (Group 1 normal renal function) was 7.6 ± 5.1 h. It also gave an AUC(0-t) (Group 2 mild renal impairment, over 48 h, read-out: AUCt, mean ± SD (%CV)) of 6610 ng·h/mL, an AUC(0-t) (Group 2 mild renal impairment, over 48 hours, read-out: AUCt, geometric LS mean (converted)) of 6470 ng·h/mL and an AUC(0-inf) (Group 2 mild renal impairment, read-out: AUC∞, geometric LS mean) of 6670 ng·h/mL. For the same compound, the AUC(0-inf) (Group 2 mild renal impairment, read-out: AUC∞, mean ± SD (%CV)) was 6840 ng·h/mL, the Cmax (Group 2 mild renal impairment, read-out: Cmax, geometric LS mean) was 510 ng/mL and the Cmax (Group 2 mild renal impairment, read-out: Cmax, mean ± SD (%CV)) was 522 ng/mL. The Vd/F (Group 2 mild renal impairment) was 147 L, the Tmax (Group 2 mild renal impairment) was 1.5 h and the half-life (Group 2 mild renal impairment) was 9.1 ± 1.6 h. It also gave an AUC(0-t) (Group 3 moderate renal impairment, over 48 h, read-out: AUCt, mean ± SD (%CV)) of 9230 ng·h/mL, an AUC(0-t) (Group 3 moderate renal impairment, over 48 hours, read-out: AUCt, geometric LS mean (converted)) of 8960 ng·h/mL and an AUC(0-inf) (Group 3 moderate renal impairment, read-out: AUC∞, geometric LS mean) of 10000 ng·h/mL. For the same compound, the AUC(0-inf) (Group 3 moderate renal impairment, read-out: AUC∞, mean ± SD (%CV)) was 10500 ng·h/mL, the Cmax (Group 3 moderate renal impairment, read-out: Cmax, geometric LS mean) was 503 ng/mL and the Cmax (Group 3 moderate renal impairment, read-out: Cmax, mean ± SD (%CV)) was 517 ng/mL. For the same compound, the Vd/F [1] was 152 L, the Tmax [1] was 1.5 h and the half-life [1] was 14.3 ± 4.5 h. It also gave an AUC(0-t) (Group 4 severe renal impairment, over 72 hours, read-out: AUCt, geometric LS mean (converted)) of 15500 ng·h/mL, an AUC(0-inf) (Group 4 severe renal impairment, read-out: AUC∞, geometric LS mean) of 19100 ng·h/mL and an AUC(0-inf) (Group 4 severe renal impairment, read-out: AUC∞, mean ± SD (%CV)) of 23600 ng·h/mL. It also gave a Cmax (Group 4 severe renal impairment, read-out: Cmax, geometric LS mean) of 533 ng/mL, a Cmax (Group 4 severe renal impairment, read-out: Cmax, mean ± SD (%CV)) of 553 ng/mL and a Vd/F [2] of 157 L. The Tmax [2] was 2 h, the half-life [2] was 29.6 ± 14.4 h and the AUC(0-inf) (Group 5.1 ESRD without hemodialysis, n=3, read-out: AUC∞, geometric LS mean) was 56300 ng·h/mL. The Vd/F [5] was 154 L, the half-life [5] was 100 h and the AUC(0-t) (Group 5.1 ESRD without hemodialysis, over 72 hours, read-out: AUCt, geometric LS mean (converted)) was 25300 ng·h/mL. For the same compound, the Cmax (Group 5.1 ESRD without hemodialysis, read-out: Cmax, geometric LS mean) was 469 ng/mL, the Cmax (Group 5.1 ESRD without hemodialysis, read-out: Cmax, mean ± SD (%CV)) was 474 ng/mL and the Tmax [3] was 3.3 h. The AUC(0-inf) (Group 5.2 ESRD with hemodialysis, n=6, read-out: AUC∞, geometric LS mean) was 65300 ng·h/mL, the Vd/F [6] was 231 L and the half-life [6] was 165 h. The AUC(0-t) (Group 5.2 ESRD with hemodialysis, over 72 hours, read-out: AUCt, geometric LS mean (converted)) was 18700 ng·h/mL, the Cmax (Group 5.2 ESRD with hemodialysis, read-out: Cmax, geometric LS mean) was 390 ng/mL and the Cmax (Group 5.2 ESRD with hemodialysis, read-out: Cmax, mean ± SD (%CV)) was 396 ng/mL. For the same compound, the Tmax [4] was 1.5 h, the “AUC0-inf, fold compared with normal renal function” value (“AUC0-inf, fold” below) (mild renal impairment) was about 1.53 fold and the “t½, fold increase compared with normal renal function” value (from here on “t½, fold increase”) (mild renal impairment) was “approximately 1.2 fold”. The “AUC0-inf, fold” value (moderate renal impairment) was about 2.29 fold, the “t½, fold increase” value (moderate renal impairment) was about 1.9 fold and the “AUC0-inf, fold” value (severe renal impairment) was about 4.39 fold. The “t½, fold increase” value (severe renal impairment) was about 3.9 fold.
